Results published in patent publication US20240116985A1, “STAPLED PEPTIDES AND METHODS THEREOF” (priority 2020, published 2024).
≈ marks a conversion by molar mass, not a printed value. Where two headings read alike, the source gives them in different places.

Legend:
[1] = CHI Log D procedure; assay type: physicochemical; details: for chromatographic logD: pH 7.4, CHI Log D; for CHI Log D: pH 7.4
[2] = Solubility in PBS; assay type: physicochemical
Method in brief: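 Solubility is derived from HPLC peak areas: the ratio of the PBS supernatant peak to a 50 μM DMSO peptide peak, times 50 uM.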

[3] = molecular target: T1, full-length beta-Catenin (Uniprot ID P35222) (Homo sapiens, UniProt P35222); experiment: Fluorescence polarization IC50 (beta-catenin / 5FAM-TCF4 10-53 competition); assay type: binding
T1 construct: 10 nM full-length beta-Catenin (Uniprot ID P35222)
T1 sequence (P35222 1-781): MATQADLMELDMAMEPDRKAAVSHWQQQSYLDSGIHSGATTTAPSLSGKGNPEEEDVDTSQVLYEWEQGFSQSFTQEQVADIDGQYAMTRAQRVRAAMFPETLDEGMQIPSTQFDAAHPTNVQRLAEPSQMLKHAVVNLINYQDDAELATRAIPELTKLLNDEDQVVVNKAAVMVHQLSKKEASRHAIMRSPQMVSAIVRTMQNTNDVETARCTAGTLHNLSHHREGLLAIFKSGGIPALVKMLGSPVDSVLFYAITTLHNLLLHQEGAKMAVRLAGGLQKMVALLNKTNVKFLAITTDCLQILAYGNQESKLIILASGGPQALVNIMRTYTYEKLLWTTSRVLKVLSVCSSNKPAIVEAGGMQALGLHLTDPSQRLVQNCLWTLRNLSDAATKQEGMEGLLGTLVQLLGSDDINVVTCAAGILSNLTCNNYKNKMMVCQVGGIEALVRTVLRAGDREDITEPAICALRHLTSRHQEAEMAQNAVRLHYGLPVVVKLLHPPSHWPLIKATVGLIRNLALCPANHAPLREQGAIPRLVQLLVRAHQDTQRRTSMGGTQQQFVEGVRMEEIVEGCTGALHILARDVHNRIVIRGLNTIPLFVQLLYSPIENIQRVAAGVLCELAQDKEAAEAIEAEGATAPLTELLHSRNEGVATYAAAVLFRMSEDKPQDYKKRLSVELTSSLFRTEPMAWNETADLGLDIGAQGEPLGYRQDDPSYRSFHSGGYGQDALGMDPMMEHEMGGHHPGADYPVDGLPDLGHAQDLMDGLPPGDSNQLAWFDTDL

[4] = fluorescence polarization, read-out: beta-Catenin FP IC50
[5] = fluorescence polarization, beta-catenin, read-out: FP EC50

SMILES	chromatographic logD [1]	Solubility [2]	IC50 [3, 4]	CHI Log D [1]	IC50 [3, 5]	IC50 ([3]; read-out: beta-Catenin FP IC50)	IC50 ([3]; read-out: FP EC50)	IC50 ([3]; Table E2-1, read-out: beta-Catenin FP IC50)	IC50 ([3]; read-out: FP EC50, fluorescence polarization, beta-catenin)	Solubility ([2]; Solubility (uM))
CC(=O)N1CCC[C@]12CC=CCCCC1(CCCC=CCCCCCC[C@@](C)(C(=O)N[C@@H](Cc3ccccc3C(N)=O)C(=O)N[C@@H](Cc3csc4ccccc34)C(=O)N[C@@H](Cc3c[nH]cn3)C(N)=O)NC(=O)[C@H](CC(N)=O)NC(=O)[C@H](Cc3ccccc3)NC(=O)[C@H](C)NC(=O)[C@H](C)NC(=O)[C@H](CCC(=O)O)NC(=O)[C@H](CC(=O)O)NC1=O)NC(=O)[C@H](C)NC(=O)[C@H](CC(=O)O)NC2=O (stereo partly drawn) [I-513, Ac-PL3-Asp-Ala-B5-Asp-Glu-Ala-Ala-Phe-Asn-S8-2CBMF-BztA-His-NH2]	1.57	50 µM (≈ 94 µg/mL)	143 nM							
CCN(CC(=O)O)C[C@@H]1NC(=O)[C@H](CC(=O)O)NC(=O)C2(CCCC=CCCCOC(=O)N3CC[C@@](C(=O)N[C@@H](Cc4ccsc4)C(=O)N[C@@H](Cc4csc5ccccc45)C(=O)N[C@@H](CO)C(N)=O)(C3)NC(=O)[C@H](CO)NC(=O)[C@H](Cc3ccccc3)NC(=O)[C@H](C)NC(=O)[C@H](C)NC1=O)CCCC=CC[C@]1(CCCN1C(C)=O)C(=O)N[C@@H](CC(=O)O)C(=O)N[C@@H](CC(C)(C)C)C(=O)N2 (stereo partly drawn) [I-975, Ac-PL3-Asp-Npg-B5-Asp-EtGA-Ala-Ala-Phe-Ser-PyrS2-3Thi-BztA-Ser-NH2]		46 µM (≈ 87.7 µg/mL)		1.952	1710 nM	2240 nM				
CC[C@H](C)[C@@H]1NC(=O)[C@H](CC(=O)O)NC(=O)[C@]2(CC=CCCCC3(CCCC=CCCCCCC[C@@](C)(C(=O)N[C@@H](Cc4ccccc4)C(=O)N[C@@H](Cc4csc5ccccc45)C(=O)N[C@@H](CCC(N)=O)C(N)=O)NC(=O)[C@H](CCC(N)=O)NC(=O)[C@H](Cc4ccccc4)NC(=O)[C@H](C)NC(=O)[C@H](Cc4ccccc4)NC(=O)[C@H](CCC(=O)O)NC(=O)[C@H](CC(=O)O)NC3=O)NC1=O)CCCN2C(C)=O (stereo partly drawn) [I-649, Ac-PL3-Asp-Ile-B5-Asp-Glu-Phe-Ala-Phe-Gln-S8-Phe-BztA-Gln-NH2]		41 µM (≈ 80.3 µg/mL)	209 nM	2.677			209 nM			
CC(=O)N1CCC[C@]12CC=CCCCC1(CCCC=CCCCCCC[C@@](C)(C(=O)N[C@@H](Cc3ccccc3)C(=O)N[C@@H](Cc3c[nH]c4ccccc34)C(=O)N[C@@H](CCC(N)=O)C(N)=O)NC(=O)[C@H](C(C)C)NC(=O)[C@H](Cc3ccco3)NC(=O)[C@H](C)NC(=O)[C@H](C)NC(=O)[C@H](CC(=O)O)NC(=O)[C@H](CC(=O)O)NC1=O)NC(=O)[C@H](C)NC(=O)[C@H](CC(=O)O)NC2=O (stereo partly drawn) [I-327, Ac-PL3-Asp-Ala-B5-Asp-Asp-Ala-Ala-2FurA-Val-S8-Phe-Trp-Gln-NH2]		43 µM (≈ 76.2 µg/mL)		1.958	4720 nM			4720 nM		
CCN(CC(=O)O)C[C@@H]1NC(=O)[C@H](CC(=O)O)NC(=O)C2(CCCC=CCCCOC(=O)N3CC[C@@](C(=O)N[C@@H](Cc4ccsc4)C(=O)N[C@@H](Cc4csc5ccccc45)C(=O)N[C@@H](CCC(N)=O)C(N)=O)(C3)NC(=O)[C@H](CC(C)C)NC(=O)[C@H](Cc3ccccc3)NC(=O)[C@H](C)NC(=O)[C@H](C)NC1=O)CCCC=CC[C@]1(CCCN1C(C)=O)C(=O)N[C@@H](CC(=O)O)C(=O)N[C@@H](CC(C)(C)C)C(=O)N2 (stereo partly drawn) [I-972, Ac-PL3-Asp-Npg-B5-Asp-EtGA-Ala-Ala-Phe-Leu-PyrS2-3Thi-BztA-Gln-NH2]		30 µM (≈ 59.2 µg/mL)		1.879	1820 nM	1820 nM				
C[C@@H]1NC(=O)[C@H](C)NC(=O)[C@H](CC(=O)O)NC(=O)[C@H](CC(=O)O)NC(=O)C2(CCCC=CCCCCCC[C@@](C)(C(=O)N[C@@H](Cc3ccsc3)C(=O)N[C@@H](Cc3csc4ccccc34)C(=O)N[C@@H](CCC(N)=O)C(N)=O)NC(=O)[C@H](CC(N)=O)NC(=O)[C@H](Cc3ccccc3)NC1=O)CCCC=CC[C@]1(CCCN1C(=O)CN=[N+]=[N-])C(=O)N[C@@H](CC(=O)O)C(=O)N[C@@H](CC(C)(C)C)C(=O)N2 (stereo partly drawn) [I-1052, AzAc-PL3-Asp-Npg-B5-Asp-Asp-Ala-Ala-Phe-Asn-S8-3Thi-BztA-Gln-NH2]		33 µM (≈ 63.2 µg/mL)		2.334					9 nM	
CCCNC(=O)C[C@@H]1NC(=O)C2(CCCC=CCCCCCC[C@@](C)(C(=O)N[C@@H](Cc3ccccc3)C(=O)N[C@@H](Cc3csc4ccccc34)C(=O)N[C@@H](CCC(N)=O)C(N)=O)NC(=O)[C@H](C(C)C)NC(=O)[C@H](Cc3ccccc3)NC(=O)[C@H](C)NC(=O)[C@H](C)NC(=O)[C@H](CC(=O)O)NC1=O)CCCC=CC[C@]1(CCCN1C(C)=O)C(=O)N[C@@H](CC(=O)O)C(=O)N[C@@H](C)C(=O)N2 (stereo partly drawn) [I-537, Ac-PL3-Asp-Ala-B5-[NHnPr]AsnR-Asp-Ala-Ala-Phe-Val-S8-Phe-BztA-Gln-NH2]	2.87		5000 nM							11 µM (≈ 20.2 µg/mL)
CC(=O)N1CCC[C@]12CC=CCCCC1(CCCC=CCCCCCC[C@@](C)(C(=O)N[C@@H](Cc3ccsc3)C(=O)N[C@@H](Cc3csc4ccccc34)C(=O)N[C@@H](CCC(N)=O)C(N)=O)NC(=O)[C@H](CC(N)=O)NC(=O)[C@H](Cc3ccccc3)NC(=O)[C@H](C)NC(=O)[C@H](C)NC(=O)[C@H](CCC(=O)O)NC(=O)[C@H](CC(=O)O)NC1=O)NC(=O)[C@H](C)NC(=O)[C@H](CC(=O)O)NC2=O (stereo partly drawn) [I-518, Ac-PL3-Asp-Ala-B5-Asp-Glu-Ala-Ala-Phe-Asn-S8-3Thi-BztA-Gln-NH2]		39 µM (≈ 71.5 µg/mL)	143 nM	1.966			143 nM			
CC(=O)N1CCC[C@]12CC=CCCCC1(CCCC=CCCCOC(=O)N3CC[C@@](C(=O)N[C@@H](Cc4ccccc4Cl)C(=O)N[C@@H](Cc4csc5ccccc45)C(=O)N[C@@H](CO)C(N)=O)(C3)NC(=O)[C@H](CC(C)C)NC(=O)[C@H](Cc3ccccc3)NC(=O)[C@H](C)NC(=O)[C@H](C)NC(=O)[C@H](CCC(=O)O)NC(=O)[C@H](CC(=O)O)NC1=O)NC(=O)[C@H](CC(C)(C)C)NC(=O)[C@H](CC(=O)O)NC2=O (stereo partly drawn) [I-1066, Ac-PL3-Asp-Npg-B5-Asp-Glu-Ala-Ala-Phe-Leu-PyrS2-2C1F-BztA-Ser-NH2]		10 µM (≈ 19.2 µg/mL)		2.024	789 nM	789 nM				
CC(=O)N1CCC[C@]12CC=CCCCC1(CCCC=CCCCOC(=O)N3CC[C@@](C(=O)N[C@@H](Cc4ccccc4Cl)C(=O)N[C@@H](Cc4csc5ccccc45)C(=O)N[C@@H](CO)C(N)=O)(C3)NC(=O)[C@H](CC(C)C)NC(=O)[C@H](Cc3ccccc3)NC(=O)[C@H](C)NC(=O)[C@H](C)NC(=O)[C@H](CC(=O)O)NC(=O)[C@H](CC(=O)O)NC1=O)NC(=O)[C@H](CC1CCCCC1)NC(=O)[C@H](CC(=O)O)NC2=O (stereo partly drawn) [I-1112, Ac-PL3-Asp-Cha-B5-Asp-Asp-Ala-Ala-Phe-Leu-PyrS2-2C1F-BztA-Ser-NH2]	2.72	10 µM (≈ 19.3 µg/mL)				40 nM				
CCC[C@@H]1NC(=O)[C@H](CC(=O)O)NC(=O)[C@]2(CC=CCCCC3(CCCC=CCCCCCC[C@@](C)(C(=O)N[C@@H](Cc4ccccc4)C(=O)N[C@@H](Cc4csc5ccccc45)C(=O)N[C@@H](CCC(N)=O)C(N)=O)NC(=O)[C@H](CCC(N)=O)NC(=O)[C@H](Cc4ccccc4)NC(=O)[C@H](C)NC(=O)[C@H](C)NC(=O)[C@H](CCC(=O)O)NC(=O)[C@H](CC(=O)O)NC3=O)NC1=O)CCCN2C(C)=O (stereo partly drawn) [I-522, Ac-PL3-Asp-Nva-B5-Asp-Glu-Ala-Ala-Phe-Gln-S8-Phe-BztA-Gln-NH2]		50 µM (≈ 93.5 µg/mL)	75 nM	2.214			75 nM			
CC[C@H](C)[C@@H]1NC(=O)[C@H](CC(=O)O)NC(=O)[C@]2(CC=CCCCC3(CCCC=CCCCCCC[C@@](C)(C(=O)N[C@@H](Cc4ccccc4)C(=O)N[C@@H](Cc4csc5ccccc45)C(=O)N[C@@H](CCC(N)=O)C(N)=O)NC(=O)[C@H](CCC(N)=O)NC(=O)[C@H](Cc4ccccc4)NC(=O)[C@H](C)NC(=O)[C@H](C)NC(=O)[C@H](Cc4ccc(C(=O)O)cc4)NC(=O)[C@H](CC(=O)O)NC3=O)NC1=O)CCCN2C(C)=O (stereo partly drawn) [I-606, Ac-PL3-Asp-Ile-B5-Asp-4COOHF-Ala-Ala-Phe-Gln-S8-Phe-BztA-Gln-NH2]		49 µM (≈ 95.3 µg/mL)	289 nM	2.412			289 nM			
CCCC[C@@H]1NC(=O)[C@H](CCC(=O)O)NC(=O)[C@H](CC(=O)O)NC(=O)C2(CCCC=CCCCCCC[C@@](C)(C(=O)N[C@@H](Cc3ccccc3)C(=O)N[C@@H](Cc3csc4ccccc34)C(=O)N[C@@H](CCC(N)=O)C(N)=O)NC(=O)[C@H](CCC(N)=O)NC(=O)[C@H](Cc3ccccc3)NC(=O)[C@H](C)NC1=O)CCCC=CC[C@]1(CCCN1C(C)=O)C(=O)N[C@@H](CC(=O)O)C(=O)N[C@@H]([C@@H](C)CC)C(=O)N2 (stereo partly drawn) [I-656, Ac-PL3-Asp-Ile-B5-Asp-Glu-nLeu-Ala-Phe-Gln-S8-Phe-BztA-Gln-NH2]		40 µM (≈ 77 µg/mL)	73 nM	2.736			73 nM			
